Measured values reported in paper PMC4630399, “Charge-Based Inhibitors of Amylin Fibrillization and Toxicity” (Journal of Diabetes Research, 2015).
“Also recorded” adds a separate entry of the source. Read-outs that look alike come from different tables or passages of the source. Positions of bridges follow the written chain, without caps; N, C: chain ends. Residues, ends and D or L forms follow the SMILES beside them. No end group written: not given here.

Key:
[1] = test system: WT-amylin cytotoxicity towards MIN6 mouse model of pancreatic β-cells; experiment: Protection of MIN6 cells against WT-amylin cytotoxicity (Alamar Blue); conditions: MIN6 cells, 80 μM WT-amylin, up to 2 : 1 inhibitor : WT-amylin
Method: (§1) The stock solutions were diluted with FBS-free DMEM and sonicated continuously for 5 min at 75% amplitude before use. FBS was subsequently added to a concentration of 15% (v/v), giving final amylin concentrations of 40, 80, and 160 μM. The final DMSO concentration for all cytotoxicity experiments was 1% (v/v).
(§2) Cytotoxicity was measured using the mouse insulinoma 6 (MIN6) cell line model of β-pancreatic cells, which were a gift from Dr. Anil Rustgi (University of Pennsylvania). Cells were seeded at a density of 20,000 per 100 μL in black clear-bottom 96-well plates. The cells were grown in DMEM with 15% FBS, 25 mM glucose, 2 mM L-glutamine, […] sodium pyruvate, 55 μM β-mercaptoethanol, 1000 units/mL penicillin, and 100 μg/mL streptomycin, for 20 h at 37°C in a humidified incubator with 5% CO2. […] The cells were incubated for another 24 h followed by the addition of 10% (v/v) of the redox indicator dye Alamar Blue at the concentration supplied by the manufacturer (Invitrogen). Fluorescence, due to the reduction of Alamar Blue by viable cells, was measured after 6 h, using excitation and emission wavelengths of 544 and 590 nm, respectively. Cell viability was calculated from the ratio of Alamar Blue fluorescence in treated to untreated cells. Uncertainties were calculated as the SEMs of triplicate measurements.

WT-amylin [2] = molecular target: T1, WT-amylin (Homo sapiens, UniProt P10997); experiment: TEM of WT-amylin fibrils formed in presence of inhibitor peptides; type: biochemical; set-up: purchased Biopeptide (San Diego, CA); host or cells: solid-phase synthesis; conditions: 80 μM WT-amylin with 160 μM analog, 20 mM sodium phosphate pH 7.4, 1% DMSO, 37°C, 24 h
T1 sequence (P10997 34-70 limits assumed): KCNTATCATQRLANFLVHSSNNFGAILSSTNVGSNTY
Method: (§3) Samples containing 80 μM concentrations of WT-amylin and the three analogs were incubated without agitation at a temperature of 37°C in 20 mM phosphate buffer (pH 7.4). For the inhibition reactions, samples contained WT-amylin at an 80 μM concentration, together with 160 μM of Arg-1, Arg-2, or Mem-T analogs. Aliquots from the reactions were removed after 2 days for TEM imaging. The aliquots were blotted onto carbon-coated 400-mesh Maxtaform copper grids (Ted Pella Inc. Redding, CA) for 1–3 min, followed by negative staining with 1% uranyl acetate. TEM images were recorded on an FEI Tecnai G^2 Spirit BioTwin transmission electron microscope equipped with an AMT XR-40 camera.
Figure 8 TEM images of fibrils formed from 80 μM WT amylin in the presence or absence of inhibitor peptides. (a) WT amylin alone, (b) with 160 μM Arg-1, (c) with 160 μM Arg-2, and (d) with 160 μM Mem-T. Aliquots were removed for TEM imaging 24 h after the fibrillization reactions were started. Reactions were carried out in 20 mM sodium phosphate (pH 7.4), 1% DMSO (v/v), at 37°C.

[3] = TEM of aggregates formed by peptides alone; type: physicochemical; conditions: 80 μM peptide, 2 days, 20 mM phosphate pH 7.4, 37°C, no agitation
Method: as §3

WT-amylin [4] = molecular target: T1, WT-amylin; experiment: ThT assay, inhibition of WT-amylin fibrillization by analogs added in trans; type: biochemical; set-up: purchased Biopeptide (San Diego, CA); host or cells: solid-phase synthesis; conditions: 20 μM WT-amylin
Method: The time course of fibrillization in solution was monitored using 100–200 μL amylin samples, contained in white polystyrene clear bottom 96-well plates (Corning Inc., Corning, NY). Plates were covered with a clear polyester sealing tape (Fisher Scientific, Agawam, MA) to prevent evaporation. Stock solutions of 1.1 mM WT-amylin and inhibitor peptides were prepared in 100% DMSO, which dissolves and disaggregates amylin fibrils, and were stored at −80°C when not in use. […] For experiments using larger 400 μM concentrations of Arg-2 and Mem-T, the solutions were prepared by diluting 100% DMSO stock solutions of 20 mM peptide to a final DMSO concentration of 2% (v/v). Amylin was the last component added to the samples for the kinetic reactions, in order to reduce the dead time for the experiments. The plates were incubated at 25°C without agitation. Fluorescence intensity was recorded at 2 min intervals with excitation at 440 nm and emission at 490 nm on a Fluoroskan Ascent 2.5 fluorescence plate reader. Fibrillization reactions for the peptides alone were performed in triplicate and for analog-peptide inhibition of WT-amylin in duplicate, to estimate experimental uncertainties in kinetic parameters.

[5] = ThT assay of fibrillization kinetics, peptides alone; type: physicochemical
Method: The time course of fibrillization in solution was monitored using 100–200 μL amylin samples, contained in white polystyrene clear bottom 96-well plates (Corning Inc., Corning, NY). Plates were covered with a clear polyester sealing tape (Fisher Scientific, Agawam, MA) to prevent evaporation. Stock solutions of 1.1 mM WT-amylin and inhibitor peptides were prepared in 100% DMSO, which dissolves and disaggregates amylin fibrils, and were stored at −80°C when not in use. Starting from the 1.1 mM stock solutions in 100% DMSO, samples for fibrillization reactions were prepared to contain 20 μM amylin and 10 μM ultrapure ThT, in 20 mM sodium phosphate buffer, pH 7.4, and a final DMSO concentration of 2% (v/v). For experiments using larger 400 μM concentrations of Arg-2 and Mem-T, the solutions were prepared by diluting 100% DMSO stock solutions of 20 mM peptide to a final DMSO concentration of 2% (v/v). Amylin was the last component added to the samples for the kinetic reactions, in order to reduce the dead time for the experiments. The plates were incubated at 25°C without agitation. Fluorescence intensity was recorded at 2 min intervals with excitation at 440 nm and emission at 490 nm on a Fluoroskan Ascent 2.5 fluorescence plate reader. Fibrillization reactions for the peptides alone were performed in triplicate and for analog-peptide inhibition of WT-amylin in duplicate, to estimate experimental uncertainties in kinetic parameters.

[6] = test system: MIN6 models of pancreatic β-cells; conditions: neutral pH, cited from earlier work
Source text: (§4) In type 2 diabetes, the positively charged 37-residue hormone amylin misfolds into cationic fibrils which have been implicated in the destruction of the pancreatic β-cells that make insulin and amylin, thus contributing to pathology. Amylin is a particularly favorable system for investigating the roles of charges in fibrillization, since the core of the intermolecular β-sheet fibril structure has only one pH-titratable group, His18 [9]. The histidine acts as an electrostatic switch, inhibiting fibrillization in its charged state at acidic pH and favoring fibrillization in its uncharged ... || The motivation for the studies described in this work was to see if electrostatic charge repulsion could be exploited to design new types of inhibitors of amylin fibrillization and cytotoxicity. […] Moreover, addition of a single charged lysine residue ...

WT-amylin fibrillization = conditions: cited from earlier work
Source text: as §4, with “|| An IC50 analysis of the inhibition data was performed to obtain quantitative information (Figure 5).” for “||”, “Arg-1 concentration-dependence” for “motivation”, “inhibition of WT-amylin fibril elongation rates gives an IC50 value of 0.6 ± 0.5 μM. For Arg-2 and Mem-T, the IC50 values are ~10 μM (Figure 5(a)). In addition” for “studies described in this work was”, “effecting elongation rates, Arg-2 increases the lag times for WT-amylin fibrillization with an IC50” for “see if electrostatic charge repulsion could be exploited to design new types”, “~0.1 μM.” for “inhibitors of amylin fibrillization and cytotoxicity.”

[7] = test system: MIN6 mouse model of pancreatic β-cells; conditions: melittin compared with 160 μM WT-amylin
Method: as §1, §2

[8] = 400 μM peptide, 150 mM NaCl, pH 7.4, 2% DMSO, 25°C, ThT, triplicate

CC[C@H](C)[C@H](NC(=O)[C@H](C)NC(=O)CNC(=O)[C@H](Cc1ccccc1)NC(=O)[C@H](CC(N)=O)NC(=O)[C@H](CC(N)=O)NC(=O)[C@H](CO)NC(=O)[C@H](CO)NC(=O)[C@H](Cc1c[nH]cn1)NC(=O)[C@H](CC(=O)O)NC(=O)[C@H](CC(=O)O)NC(=O)[C@H](CC(=O)O)NC(=O)[C@H](CC(N)=O)NC(=O)[C@H](C)NC(=O)[C@H](CC(=O)O)NC(=O)[C@H](CCCNC(=N)N)NC(=O)[C@H](CC(=O)O)NC(=O)[C@@H](NC(=O)[C@H](C)NC(=O)[C@@H]1CSSC[C@H](NC(=O)[C@@H](N)CCCCN)C(=O)N[C@@H](CC(N)=O)C(=O)N[C@@H]([C@@H](C)O)C(=O)N[C@@H](C)C(=O)N[C@@H]([C@@H](C)O)C(=O)N1)[C@@H](C)O)C(=O)N[C@@H](CC(C)C)C(=O)N[C@@H](CO)C(=O)N[C@@H](CO)C(=O)N[C@H](C(=O)N[C@@H](CC(N)=O)C(=O)N[C@H](C(=O)NCC(=O)N[C@@H](CO)C(=O)N[C@@H](CC(N)=O)C(=O)N[C@H](C(=O)N[C@@H](Cc1ccc(O)cc1)C(N)=O)[C@@H](C)O)C(C)C)[C@@H](C)O [Mem-T] (H-KCNTATCATDRDANDDDHSSNNFGAILSSTNVGSNTY-NH2; disulfide 2-7 (inferred); N-terminus assumed)
protection against WT-amylin cytotoxicity (overall) [1]: failed to protect against WT-amylin cytotoxicity | TEM of WT-amylin fibrils formed with inhibitor (WT-amylin [2]): indistinguishable from those formed with WT-amylin alone | aggregate morphology by TEM [3]: only detected amorphous aggregates with nonfibrillar morphologies; also recorded: few if any fibrils | reduction in elongation rates relative to arginine-peptides (WT-amylin [4]): only about half of that for the arginine-peptides | effect on WT-amylin fibrillization lag time (WT-amylin [4]; 150 mM NaCl): decrease at high concentrations; also recorded: causes a reduction in lag times at high concentrations of the analog (>10 μM); also recorded: decreases the lag times | reduction of WT-amylin fibril elongation rate (WT-amylin [4]; 150 mM NaCl, analog 0.001 to 120 μM): 4 fold | salt dependence of inhibition of elongation rate (WT-amylin [4]; varying NaCl): salt effects on elongation rates are reduced close to the uncertainties of the measurements | salt dependence of lag time shortening (WT-amylin [4]; varying NaCl): shows a strong salt concentration dependence | fibrillization detected (ThT) ([5]; 20 μM peptide, 150 mM NaCl, pH 7.4, 25°C): failed to fibrillize | fibril elongation rate [5, 8]: 6.1 ± 1.4 × 10^−6 min^−1 | fibrillization lag time [5, 8]: 10,000 min | fibrillization detected (ThT) ([5]; 400 μM peptide, absence of salt): only a very weak signal for fibrils was detected | fibrillization detected (ThT) ([5]; 400 μM peptide, pH 7.4, 2% DMSO, 25°C): weak fibrillization | fibrillization detected (ThT) ([5]; 400 μM peptide, physiological salt concentrations and above): Fibrillization was stimulated

H18R: H18R mutant of amylin (KCNTATCATQRLANFLVRSSNNFGAILSSTNVGSNTY; not fully specified (C-terminus); ends and bridges not checked; UniProt P10997 34-70, looked up, variant H18R)
cytotoxicity to β-cells [6]: not cytotoxic to β-cells | cytotoxicity to β-cells ([6]; listed as Substitution of a positively charged arginine at position 18): lowers cytotoxicity to MIN6 models of pancreatic β-cells compared to WT-amylin

heparin
effect on WT-amylin fibrillization (WT-amylin fibrillization): enhance fibrillization of WT-amylin

melittin
viability of MIN6 cells, positive control [7]: comparable to the value obtained with the potent toxin melittin
